Results from US20050031715A1, “Natural preservative comprising heated garlic extract and method for preparing thereof” (SEJONG UNIVERSITY, priority 2003, published 2005).

How the values were obtained:
Type in all cases: cell-based
[1] = tested on: Candida utilis ATCC 42416; test: Antimicrobial activity (MIC) over storage time at 37° C.; conditions: stored at 37° C., 30 days, heated extract: 121° C. for 120 min
Method: (§1) In order to compare the antibacterial activity and the antifungal activity of the garlic extract of Example 1 prepared by heating at 121° C., according to the heating time, MIC (minimum inhibitory concentration) was measured for the samples of the heated garlic extract. The MIC represents minimum concentration of material to inhibit the growth of certain type of microorganism. It is understood that the lower the MIC of a material, the higher the antimicrobial activity of the material. The inhibition of microbial growth was measured by viable count method based on Spiral Autoplate System of Spiral Biotech Inc. Three separate experiments were carried out for each sample and the highest value was taken as the MIC of the sample.
Antimicrobial activity of the garlic extract prepared by heating at 121° C. for 120 min in Example 1, the fresh garlic extract and the AITC solution was measured for Candida utilis ATCC 42416, over storage time. Candida utilis ATCC 42416 used in this Test Example was kindly provided from Dr. Henry P. Fleming at the Food Fermentation Laboratory of the North Carolina State University in USA. […] From the first day to the 30th day of the storage, the MIC was measured everyday or every two days using the viable count method described in Test Example 1.

[2] = tested on: Saccharomyces cerevisiae ATCC 4126; test: MIC, viable count method; conditions: 48 hrs, heated garlic: 121° C. for 45 min
Method: as §1
(§2) Antimicrobial activity was measured for the garlic extract heated at 121° C. for 45 min of Example 1, the fresh garlic extract and the AITC solution which had been prepared in Comparative Examples. Conditions for the viable count method, the medium and initial number of microorganisms inoculated were the same as those described in the above Test Examples. The MIC was measured at 24 hrs or 48 hrs after incubating the bacteria or the yeasts, respectively.
(§3) Staphylococcus aureus B33, Escherichia coli B34, Enterobacter aerogenes B146, Leuconostoc mesenteroides LA10, Pediococcus pentosaceus LA3, Lactobacillus plantarum LA97, Pichia membranifaciens Y20, Saccharomyces cerevisiae ATCC 4126 and Candida utilis ATCC 42416 used in this Test Example were kindly provided from Dr. Henry P. Fleming at the Food Fermentation Laboratory of the North Carolina State University in USA. Candida albicans HY1 was separated from an infant with oral candidiasis. In addition, Candida albicans KCTC 7121 and 7965 were purchased from Korean Collection for Type Cultures (KCTC) and Zygosaccharomyces bisporus KCCM 50168, Zygosaccharomyces rouxii (soya) KCCM 11300, Zygosaccharomyces rouxii KCCM 11303, Zygosaccharomyces rouxii (sake) KCCM 50523 and Zygosaccharomyces rouxii (gracilis) KCCM 50546 were obtained from KCCM (Korean Culture Center of Microorganisms).

[3] = tested on: Pediococcus pentosaceus LA3; test: MIC, viable count method; conditions: 24 hrs, heated garlic: 121° C. for 45 min
Method: as §1, §2, §3

[4] = tested on: Zygosaccharomyces rouxii KCCM 11303; test: MIC, viable count method; conditions: 48 hrs, heated garlic: 121° C. for 45 min
Method: as §1, §2, §3

[5] = tested on: Zygosaccharomyces bisporus KCCM 50168; test: MIC, viable count method; conditions: 48 hrs, heated garlic: 121° C. for 45 min
Method: as §1, §2, §3

[6] = tested on: Leuconostoc mesenteroides LA10; test: MIC, viable count method; conditions: 24 hrs, heated garlic: 121° C. for 45 min
Method: as §1, §2, §3

[7] = tested on: Zygosaccharomyces rouxii KCCM 11300; test: MIC, viable count method; conditions: 48 hrs, heated garlic: 121° C. for 45 min
Method: as §1, §2, §3

[8] = tested on: Enterobacter aerogenes B146; test: MIC, viable count method; conditions: 24 hrs, heated garlic: 121° C. for 45 min
Method: as §1, §2, §3

[9] = tested on: Staphylococcus aureus B33; test: MIC, viable count method; conditions: 24 hrs, heated garlic: 121° C. for 45 min
Method: as §1, §2, §3

[10] = tested on: Candida albicans KCTC 7965; test: MIC, viable count method; conditions: 48 hrs, heated garlic: 121° C. for 45 min
Method: as §1, §2, §3

[11] = tested on: Zygosaccharomyces rouxii KCCM 50546; test: MIC, viable count method; conditions: 48 hrs, heated garlic: 121° C. for 45 min
Method: as §1, §2, §3

[12] = tested on: Pichia membranefaciens Y20; test: MIC, viable count method; conditions: 48 hrs, heated garlic: 121° C. for 45 min
Method: as §1, §2, §3

Escherichia coli B34 = test: MIC, viable count method; conditions: 24 hrs, heated garlic: 121° C. for 45 min
Method: as §1, §2, §3

[13] = tested on: Lactobacillus plantarum LA97; test: MIC, viable count method; conditions: 24 hrs, heated garlic: 121° C. for 45 min
Method: as §1, §2, §3

[14] = tested on: Candida albicans KCTC 7121; test: MIC, viable count method; conditions: 48 hrs, heated garlic: 121° C. for 45 min
Method: as §1, §2, §3

[15] = tested on: Zygosaccharomyces rouxii KCCM 50523; test: MIC, viable count method; conditions: 48 hrs, heated garlic: 121° C. for 45 min
Method: as §1, §2, §3

[16] = tested on: Candida utilis ATCC 42416; test: MIC, viable count method; conditions: 48 hrs, heated garlic: 121° C. for 45 min
Method: as §1, §2, §3

[17] = tested on: Candida albicans (Clinical); test: MIC, viable count method; conditions: 48 hrs, heated garlic: 121° C. for 45 min
Method: as §1, §2, §3

[18] = tested on: Candida utilis ATCC 42416; test: Antimicrobial activity (log CFU/Ml) over pH condition; conditions: 30° C., 24 hrs
Method: Antimicrobial activity of the garlic extract heated at 121° C. for 120 min in Example 1 was measured for Candida utilis ATCC 42416, under various pH conditions. […] For a control, YMPGB medium without comprising any preservative was used. Candida utilis ATCC 42416 used in this Test Example was kindly provided from Dr. Henry P. Fleming at the Food Fermentation Laboratory of the North Carolina State University in USA. […] Then, Candida utilis ATCC 42416 was inoculated with an initial number of 2.1-2.3×10^5 CFU/mL and subsequently incubated at 30° C. for 24 hrs. After completing the incubation, the value of log CFU/Ml was measured by using the viable count method described above.

For `C=CCN=C=S` [AITC solution, allyl isothiocyanate], the “stability of antifungal activity over storage time” value [1] was “very unstable”, the MIC [2] was 0.0002 ± 0.0001 volume % and the MIC [3] was 0.02 ± 0.0012 volume %. For the same molecule, the MIC [4] was 0.0004 ± 0.0001 volume %, the MIC [5] was 0.0002 ± 0 volume % and the MIC [6] was 0.04 ± 0.0023 volume %. It also gave an MIC [7] of 0.0002 ± 0 volume %, an MIC [8] of 0.02 ± 0.002 volume % and an MIC [9] of 0.015 ± 0.0006 volume %. For the same molecule, the MIC [10] was 0.0004 ± 0.0001 volume %, the MIC [11] was 0.0004 ± 0.0001 volume % and the MIC [12] was 0.0001 ± 0 volume %. The MIC (Escherichia coli B34) was 0.01 ± 0.0006 volume %, the MIC [13] was 0.02 ± 0 volume % and the MIC [14] was 0.0003 ± 0.0001 volume %. For the same molecule, the MIC [15] was 0.0005 ± 0.0001 volume %, the MIC [16] was 0.0004 ± 0.0001 volume % and the MIC [17] was 0.0003 ± 0 volume %.
`C/C=C/C=C/C(=O)[O-].[K+]` [potassium sorbate] was tested, and the “antimicrobial activity, dependence on pH” value ([18]; pH 4 to 9, heated garlic extract (121° C., 120 min) 0.5 volume %, potassium sorbate 0.1 weight %) was “significantly affected by pH”, the “antimicrobial activity at pH 5” value ([18]; pH 5, 0.1 weight %) was “high” and the “antimicrobial activity at pH 6” value ([18]; pH 6, 0.1 weight %) was “dropped to almost zero”.
